Experimental findings from patent US8173771B2, “Humanin receptor or humanin-like polypeptide receptor” (Keio Univeristy, priority 2005, dated 2012) are described below.

This test addresses T1, HN receptor (HNR; CNTF-R/WSX-1/gp130) on F11 cells (Mus musculus, UniProt O70394+O88507).
T1 construct: endogenous in cells; host or cells: F11 neurohybrid cells
T1 sequence (O70394 25-623): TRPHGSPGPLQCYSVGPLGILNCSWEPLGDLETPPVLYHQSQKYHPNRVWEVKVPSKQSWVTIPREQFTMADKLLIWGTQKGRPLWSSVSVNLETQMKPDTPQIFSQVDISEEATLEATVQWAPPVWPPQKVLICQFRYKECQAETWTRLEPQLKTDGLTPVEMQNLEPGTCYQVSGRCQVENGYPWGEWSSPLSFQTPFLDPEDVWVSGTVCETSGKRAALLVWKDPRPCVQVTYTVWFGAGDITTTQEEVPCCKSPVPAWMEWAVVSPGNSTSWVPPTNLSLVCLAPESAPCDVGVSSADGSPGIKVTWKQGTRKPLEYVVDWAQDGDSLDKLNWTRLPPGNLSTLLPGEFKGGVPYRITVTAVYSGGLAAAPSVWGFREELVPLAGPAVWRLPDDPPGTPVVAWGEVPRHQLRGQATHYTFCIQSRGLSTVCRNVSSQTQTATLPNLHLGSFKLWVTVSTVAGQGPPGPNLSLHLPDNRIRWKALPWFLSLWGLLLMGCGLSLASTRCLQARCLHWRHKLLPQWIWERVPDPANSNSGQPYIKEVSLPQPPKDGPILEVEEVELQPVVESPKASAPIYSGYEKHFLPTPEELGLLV
T1 sequence (O88507 23-342): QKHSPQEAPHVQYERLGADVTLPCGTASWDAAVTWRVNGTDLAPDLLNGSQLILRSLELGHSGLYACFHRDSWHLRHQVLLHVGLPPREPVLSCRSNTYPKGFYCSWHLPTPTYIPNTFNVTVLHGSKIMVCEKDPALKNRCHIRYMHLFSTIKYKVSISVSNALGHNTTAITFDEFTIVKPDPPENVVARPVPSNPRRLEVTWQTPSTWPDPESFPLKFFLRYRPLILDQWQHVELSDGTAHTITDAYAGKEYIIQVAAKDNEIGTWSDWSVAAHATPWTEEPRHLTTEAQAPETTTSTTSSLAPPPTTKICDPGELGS
T1 sequence (Q00560 23-917 partner): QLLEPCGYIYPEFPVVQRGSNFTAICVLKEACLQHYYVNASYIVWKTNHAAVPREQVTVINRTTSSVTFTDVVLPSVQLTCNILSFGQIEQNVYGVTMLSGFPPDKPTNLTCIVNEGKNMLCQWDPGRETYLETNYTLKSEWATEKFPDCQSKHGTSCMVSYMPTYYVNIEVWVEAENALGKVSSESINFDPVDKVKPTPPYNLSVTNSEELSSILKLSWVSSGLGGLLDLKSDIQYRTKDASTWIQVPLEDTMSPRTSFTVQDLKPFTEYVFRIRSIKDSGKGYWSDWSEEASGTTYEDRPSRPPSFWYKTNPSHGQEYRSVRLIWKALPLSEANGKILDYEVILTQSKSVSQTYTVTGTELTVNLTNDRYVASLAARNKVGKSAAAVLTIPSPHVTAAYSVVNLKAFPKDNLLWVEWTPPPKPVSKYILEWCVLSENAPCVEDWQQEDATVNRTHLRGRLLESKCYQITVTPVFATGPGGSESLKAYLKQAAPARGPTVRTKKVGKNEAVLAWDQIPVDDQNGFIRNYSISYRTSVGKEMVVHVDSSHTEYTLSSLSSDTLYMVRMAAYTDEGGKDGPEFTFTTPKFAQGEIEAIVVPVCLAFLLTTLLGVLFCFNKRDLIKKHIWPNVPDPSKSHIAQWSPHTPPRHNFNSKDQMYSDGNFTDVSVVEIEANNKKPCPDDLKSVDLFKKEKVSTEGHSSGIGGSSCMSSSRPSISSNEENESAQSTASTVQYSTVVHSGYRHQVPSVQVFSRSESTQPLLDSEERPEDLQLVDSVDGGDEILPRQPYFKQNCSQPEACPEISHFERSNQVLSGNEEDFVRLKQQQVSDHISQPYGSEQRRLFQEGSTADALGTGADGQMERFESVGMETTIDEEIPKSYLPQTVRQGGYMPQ
Put plainly: Immunofluorescence-based binding assay (2): biotin-HN / biotin-HNG binding to F11 cells. The method, then: A) F11 cells were seeded on 96-well plates coated with poly-L-lysine (7×10^3 cells/well). An indicated amount of biotin-HN or biotin-HNG was added to the cells with or without 10 μM of unlabelled HNG or HNA, followed by a binding assay based on immunofluorescence reaction (2) (left panels). On the other hand, F11 cells were transfected with 0.5 μg of pcDNA3.1/GS-human CNTF-R, pEF1/MycHis-human WSX-1, and 1.0 μg of pCAG-human gp130. At 24 hrs after the transfection, the cells were re-seeded on 96-well plates coated with poly-L-lysine (7×10^3 cells/well). After 36 hrs the re-seeding, an indicated amount of biotin-HN or biotin-HNG was added to the cells with or without 10 μM of unlabeled HNG or HNA, followed by a binding assay based on immunofluorescence reaction (2) (right panels).
B) F11 cells were transfected with 0.5 μg of pRNA-U1.6/Shuttle vector, pRNA-U6.1/Shuttle-WSX-1 siRNA, pRNA-U6.1/Shuttle-CNTF-R siRNA, both pRNA-U6.1/Shuttle-WSX-1 siRNA and pRNA-U6.1/Shuttle-CNTF-R siRNA (0.5 μg each), pRNA-U6.1/Shuttle-FPR2 siRNA or pRNA-U6.1/Shuttle-LIFR siRNA. The total amount of vectors was adjusted to be 1.0 μg by including a backbone vector. At 24 hrs after the transfection, an indicated amount of biotin-HNG was added with or without unlabeled HNG, followed by a binding assay based on immunofluorescence reaction (2) at 72 hrs after the transfection.
E) F11 cells on 6-well plate (7×10^4 cells/well) were transfected with 1.0 μg of pRNA-U6.1/Shuttle vector, pRNA-U6.1/Shuttle-Bax siRNA, or both pRNA-U6.1/Shuttle-WSX-1 siRNA and pRNA-U6.1/Shuttle-CNTF-R siRNA (0.5 μg each). At 72 hrs after the transfection, the cells were added with an indicated amount of biotin-HN with or without unlabeled HN or HNA (100 μM) and subjected to an HN-binding assay based on immunofluorescence.
F11 cells (7×10^4/well in 6-well plates) were replated into 96-well plates (7×10^3 cells/well) at 24 hrs after transfection with indicated amounts of the plasmids encoding mycHis-WSX or V5-CNTF-R, and with PCAG-human gp130 if required. At 36 hrs after transfection, the cells were added with biotin-labeled HN or HNG of indicated concentrations in the presence or the absence of HNG (S14G-HN) or HNA (C8A-HN) of indicated concentrations (Hashimoto et al., 2001 a). After 6 hrs incubation, they were fixed with 4% paraformaldehyde in PBS for 30 min. After washing with PBS, cells were stained with FITC-conjugated avidin (Molecularprobe, Eugene, Oreg., USA). Immunofluorescence intensity was measured (excitation=485 nm, emission=535 nm) with a spectrofluorometer (Wallac1420 ARVOsx Multi Label Counter). Immunohistochemical analysis was done with a laser-scanning, confocal microscope LSM (Carl Zeiss, Germany).

Peptide text beside a SMILES is read from it.

In the case of `CC[C@H](C)[C@H](NC(=O)[C@H](CCC(=O)O)NC(=O)CNC(=O)[C@@H](NC(=O)[C@H](CC(C)C)NC(=O)[C@H](CC(C)C)NC(=O)[C@H](CC(C)C)NC(=O)[C@H](CC(C)C)NC(=O)[C@H](CS)NC(=O)[C@H](CO)NC(=O)[C@H](Cc1ccccc1)NC(=O)CNC(=O)[C@H](CCCNC(=N)N)NC(=O)[C@@H]1CCCN1C(=O)[C@H](C)NC(=O)[C@@H](N)CCSC)[C@@H](C)O)C(=O)N[C@@H](CC(=O)O)C(=O)N[C@@H](CC(C)C)C(=O)N1CCC[C@H]1C(=O)N[C@H](C(=O)N[C@@H](CCCCN)C(=O)N[C@@H](CCCNC(=N)N)C(=O)N[C@@H](CCCNC(=N)N)C(=O)N[C@@H](C)C(=O)O)C(C)C` [HNG, S14 G-Humanin] (H-MAPRGFSCLLLLTGEIDLPVKRRA-OH; N-terminus and C-terminus assumed), the “concentration of saturation of binding” value (biotin-HNG, concentration-dependent binding) was 10 nM. Further, the “binding to F11 cells” value (expression of FPR2 or LIFR decreased by siRNA) is on record as “not be affected”. For the same compound, the “inhibition of binding by over-addition of unlabeled peptide” value (specificity of binding) is recorded as “almost completely inhibit”.
